How the values were obtained:
[1] = molecular target: T1, His-tagged human recombinant kinase full-length Akt1 (Homo sapiens, UniProt P31749); test: Akt1 kinase assay (TR-FRET); format: biochemical; details: 10 μM ATP, 60 min at 22° C., read-out: Akt1, median IC50
T1 construct: His-tagged human recombinant kinase full-length Akt1; His; purchased Invitrogen PV 3599; host or cells: insect cells
Excerpt: Akt1 inhibitory activity of compounds of the present invention was quantified employing the Akt1 TR-FRET assay as described in the following paragraphs.
(§1) His-tagged human recombinant kinase full-length Akt1 expressed in insect cells was purchased form Invitrogen (part number PV 3599). As substrate for the kinase reaction the biotinylated peptide biotin-Ahx-KKLNRTLSFAEPG (C-terminus in amide form) was used which can be purchased e.g. from the company Biosynthan GmbH (Berlin-Buch, Germany).
(§2) For the assay 50 nl of a 100 fold concentrated solution of the test compound in DMSO was pipetted into a black low volume 384well microtiter plate (Greiner Bio-One, Frickenhausen, Germany), 2 μl of a solution of Akt1 in assay buffer [50 mM TRIS/HCl pH 7.5, 5 mM MgCl2, 1 mM dithiothreitol, 0.02% (v/v) Triton X-100 (Sigma)] were added and the mixture was incubated for 15 min at 22° C. to allow pre-binding of the test compounds to the enzyme before the start of the kinase reaction. Then the kinase reaction was started by the addition of 3 μl of a solution of adenosine-tri-phosphate (ATP, 16.7 μM=>final conc. in the 5 μl assay volume is 10 μM) and substrate (1.67 μM=>final conc. in the 5 μl assay volume is 1 μM) in assay buffer and the resulting mixture was incubated for a reaction time of 60 min at 22° C. The concentration of Akt1 in the assay was adjusted depending of the activity of the enzyme lot and was chosen appropriate to have the assay in the linear range, typical enzyme concentrations were in the range of about 0.05 ng/μl (final conc. in the 5 μl assay volume).
The reaction was stopped by the addition of 5 μl of a solution of HTRF detection reagents (200 nM streptavidine-XL665 [Cisbio] and 1.5 nM anti-phosho-Serine antibody [Millipore, cat. #35-001] and 0.75 nM LANCE Eu-W 1024 labeled anti-mouse IgG antibody [Perkin Elmer]) in an aqueous EDTA-solution (100 mM EDTA, 0.1% (w/v) bovine serum albumin in 50 mM HEPES/NaOH pH 7.5). The resulting mixture was incubated 1 h at 22° C. to allow the binding of the biotinylated phosphorylated peptide to the streptavidine-XL665 and the antibodies. Subsequently the amount of phosphorylated substrate was evaluated by measurement of the resonance energy transfer from the anti-mouse-IgG-Eu-Chelate to the streptavidine-XL665. Therefore, the fluorescence emissions at 620 nm and 665 nm after excitation at 350 nm was measured in a HTRF reader, e.g. a Rubystar (BMG Labtechnologies, Offenburg, Germany) or a Viewlux (Perkin-Elmer). The ratio of the emissions at 665 nm and at […] was taken as the measure for the amount of phosphorylated substrate. The data were normalised (enzyme reaction without inhibitor=0% inhibition, all other assay components but no enzyme=100% inhibition).

[2] = tested on: KPL-4 breast cancer cell line; test: Tumor cell proliferation assay (CellTiter-Glo); format: cell-based; details: KPL4, 72 h drug exposure
Procedure: Compounds were tested in a cell-based assay that measures the capacity of the compounds to inhibit tumour cell proliferation following a 72 h drug exposure. Cell viability is determined using CellTiter-Glow® (CTG, Promega, cat #G7571/2/3). The CellTiter-Glo® Luminescent Cell Viability Assay is a homogeneous method to determine the number of viable cells in culture. Detection is based on using the luciferase reaction to measure the amount of ATP from viable cells. The amount of ATP in cells correlates with cell viability. Within minutes after a loss of membrane integrity, cells lose the ability to synthesize ATP, and endogenous ATPases destroy any remaining ATP; thus the levels of ATP fall precipitously.
Cells were plated at 3000-5000 cells/well (depending on the cell lines) in 90 μL growth medium on MTPs (Corning; #3603, black plate, clear flat bottom). For each cell line assayed, cells were plated onto a separate plate for determination of […] at t=0 hour and t=72 hour time points. Following overnight incubation at 37° C., chemiluminescence values for the t=0 samples were determined after adding 10 μl medium and 100 μl CTG solution according to manufacture protocol. Plates for the t=72 hour time points were treated with compounds diluted into growth medium at ten times final concentration added in 10 μL to the cell culture plate. Cells were then incubated for 72 hours at 37° C. Chemiluminescence values for the t=72 hour samples were determined. […] Experiments were controlled using a reference compound as standard.

[3] = molecular target: T2, His-tagged human recombinant kinase full-length Akt2 (Homo sapiens, UniProt P31751); test: Akt2 kinase assay (TR-FRET); format: biochemical; details: 10 μM ATP, 60 min at 22° C., read-out: Akt2, median IC50
T2 construct: His-tagged human recombinant kinase full-length Akt2; His; purchased Invitrogen PV 3975; host or cells: insect cells
Excerpt: Akt2 inhibitory activity of compounds of the present invention was quantified employing the Akt2 TR-FRET assay as described in the following paragraphs.
as §1, with “Akt2” for “Akt1”, “cells and activated by PDK1” for “cells”, “3975).” for “3599).”
as §2, with “Akt2” for “Akt1”, “0.2” for “0.05”
The reaction was stopped by the addition of 5 μl of a solution of HTRF detection reagents (200 nM streptavidine-XL665 [Cisbio] and 1.5 nM anti-phosho-Serine antibody [Millipore, cat. #35-001] and 0.75 nM LANCE Eu-W 1024 labeled anti-mouse IgG antibody [Perkin Elmer]) in an aqueous EDTA-solution (100 mM EDTA, 0.1% (w/v) bovine serum albumin in 50 mM HEPES/NaOH pH 7.5).
The resulting mixture was incubated 1 h at 22° C. to allow the binding of the biotinylated phosphorylated peptide to the streptavidine-XL665 and the antibodies.
Subsequently the amount of phosphorylated substrate was evaluated by measurement of the resonance energy transfer from the anti-mouse-IgG-Eu-Chelate to the streptavidine-XL665. Therefore, the fluorescence emissions at 620 nm and 665 nm after excitation at 350 nm was measured in a TR-FRET reader, e.g. a Rubystar (BMG Labtechnologies, Offenburg, Germany) or a Viewlux (Perkin-Elmer). The ratio of the emissions at 665 nm and at […] was taken as the measure for the amount of phosphorylated substrate. The data were normalised (enzyme reaction without inhibitor=0% inhibition, all other assay components but no enzyme=100% inhibition).

T2 sequence (P31751 whole entry): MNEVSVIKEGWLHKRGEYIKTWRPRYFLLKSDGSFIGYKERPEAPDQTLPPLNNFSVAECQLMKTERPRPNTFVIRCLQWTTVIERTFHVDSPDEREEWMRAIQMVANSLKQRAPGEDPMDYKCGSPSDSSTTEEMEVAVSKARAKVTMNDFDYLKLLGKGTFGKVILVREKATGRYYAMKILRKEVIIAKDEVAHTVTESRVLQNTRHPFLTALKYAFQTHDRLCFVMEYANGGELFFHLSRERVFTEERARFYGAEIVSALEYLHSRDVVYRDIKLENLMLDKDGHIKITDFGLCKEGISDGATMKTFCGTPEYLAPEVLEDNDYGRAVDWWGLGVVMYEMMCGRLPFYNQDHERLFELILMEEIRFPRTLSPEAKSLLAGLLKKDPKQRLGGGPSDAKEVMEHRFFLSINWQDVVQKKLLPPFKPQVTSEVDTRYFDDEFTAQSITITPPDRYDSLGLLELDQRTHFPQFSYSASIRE
T1 sequence (P31749 whole entry): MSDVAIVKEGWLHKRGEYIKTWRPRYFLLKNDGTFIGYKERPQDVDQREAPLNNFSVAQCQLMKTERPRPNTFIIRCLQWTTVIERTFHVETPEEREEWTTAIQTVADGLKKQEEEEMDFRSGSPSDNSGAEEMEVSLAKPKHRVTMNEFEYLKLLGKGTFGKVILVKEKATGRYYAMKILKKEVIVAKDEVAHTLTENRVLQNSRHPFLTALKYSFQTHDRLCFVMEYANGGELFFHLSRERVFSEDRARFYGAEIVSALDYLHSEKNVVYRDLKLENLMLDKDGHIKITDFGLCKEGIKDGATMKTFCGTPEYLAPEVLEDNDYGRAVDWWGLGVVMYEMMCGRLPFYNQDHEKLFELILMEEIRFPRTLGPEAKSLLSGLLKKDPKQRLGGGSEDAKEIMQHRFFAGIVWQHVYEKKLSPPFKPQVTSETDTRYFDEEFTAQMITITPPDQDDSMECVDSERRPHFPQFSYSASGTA

With `NC1(c2ccc(-c3nc4nc(C5CC5)nn4cc3-c3ccccc3)cc2)CCC1` [Example 1-4, 1-[4-(2-cyclopropyl-6-phenyl-[1,2,4]triazolo[1,5-a]pyrimidin-5-yl)-phenyl]-cyclobutylamine] the IC50 [1] was 0.755 µM, the IC50 [2] was 1.41 µM and the IC50 [3] was 0.408 µM.
Compound `Cc1cn2c(NC3CC3)c(-c3ccccc3)c(-c3ccc(C4(N)CCC4)cc3)nc2n1` [Example 2-5, {7-[4-(1-Amino-cyclobutyl)-phenyl]-2-methyl-6-phenyl-imidazo[1,2-a]pyrimidin-5-yl)-cyclopropylamine] has an IC50 [2] of 3.62 µM and an IC50 [3] of 0.54 µM.
For `CC(C)(C)Nc1c(-c2ccccc2)c(-c2ccc(C3(N)CCC3)cc2)nc2nc(-c3ccccn3)nn12` [Example 3-0, {5-[4-(1-Aminocyclobutyl)-phenyl]-6-phenyl-2-pyridine-2-yl-[1,2,4]triazolo[1,5-a]pyrimidin-7-yl}-tert.-butylamine], the IC50 [1] was 1.13 µM, the IC50 [2] was 1.74 µM and the IC50 [3] was 0.061 µM.
Compound `COCCNc1nc2nc(-c3ccc(C4(N)CCC4)cc3)c(-c3ccccc3)cn2n1` [Example 5-0, {5-[4-(1-Amino-cyclobutyl)-phenyl]-6-phenyl-[1,2,4]triazolo[1,5-a]pyrimidin-2-yl}-(2-methoxy-ethyl)-amine] has an IC50 [1] of 1.83 µM and an IC50 [3] of 0.877 µM.
`CCNc1nc2nc(-c3ccc(C4(N)CCC4)cc3)c(-c3ccccc3)cn2n1` [Example 5-1, {5-[4-(1-amino-cyclobutyl)-phenyl]-6-phenyl-[1,2,4]triazolo[1,5-a]pyrimidin-2-yl}-ethyl-amine] was tested, and the IC50 [1] was 0.958 µM and the IC50 [3] was 0.502 µM.
In the case of `CNc1nc2nc(-c3ccc(C4(N)CCC4)cc3)c(-c3ccccc3)cn2n1` [Example 5-3, {5-[4-(1-amino-cyclobutyl)-phenyl]-6-phenyl-[1,2,4]triazolo[1,5-a]pyrimidin-2-yl}-methyl-amine], the IC50 [1] is reported as 0.527 µM, the IC50 [2] is reported as 2.17 µM and the IC50 [3] is reported as 0.381 µM.
With `NC1(c2ccc(-c3nc4nc(NCc5ccncc5)nn4cc3-c3ccccc3)cc2)CCC1` [Example 5-6, {5-[4-(1-amino-cyclobutyl)-phenyl]-6-phenyl-[1,2,4]triazolo[1,5-a]pyrimidin-2-yl}-pyridin-4-ylmethyl-amine] the IC50 [1] was 5.65 µM and the IC50 [3] was 2.55 µM.
In the case of `Cc1nc2nc(-c3ccc(C4(N)CCC4)cc3)c(-c3ccccc3)c(NC(C)C)n2n1` [Example 5-7, {5-[4-(1-amino-cyclobutyl)-phenyl]-2-methyl-6-phenyl-[1,2,4]triazolo[1,5-a]pyrimidin-7-yl}-isopropyl-amine], the IC50 [1] is reported as 0.672 µM and the IC50 [3] is reported as 0.549 µM.
With `Cc1nc2nc(-c3ccc(C4(N)CCC4)cc3)c(-c3ccccc3)c(NCC3CC3)n2n1` [Example 5-9, {5-[4-(1-amino-cyclobutyl)-phenyl]-2-methyl-6-phenyl-[1,2,4]triazolo[1,5-a]pyrimidin-7-yl}-cyclopropylmethyl-amine] the IC50 [1] was 0.854 µM and the IC50 [3] was 0.541 µM.
Work on `CNc1c(-c2ccccc2)c(-c2ccc(C3(N)CCC3)cc2)nc2nc(C3CC3)nn12` [Example 5-10, {5-[4-(1-amino-cyclobutyl)-phenyl]-2-cyclopropyl-6-phenyl-[1,2,4]triazolo[1,5-a]pyrimidin-7-yl}-methyl-amine] yielded an IC50 [1] of 0.93 µM and an IC50 [3] of 0.982 µM.
With `CCNc1c(-c2ccccc2)c(-c2ccc(C3(N)CCC3)cc2)nc2nc(C)nn12` [Example 5-11, {5-[4-(1-amino-cyclobutyl)-phenyl]-2-methyl-6-phenyl-[1,2,4]triazolo[1,5-a]pyrimidin-7-yl}-ethyl-amine] the IC50 [1] was 1.73 µM and the IC50 [3] was 1.12 µM.
`Cc1nc2nc(-c3ccc(C4(N)CCC4)cc3)c(-c3ccccc3)c(NC3CC3)n2n1` [Example 5-12, {5-[4-(1-amino-cyclobutyl)-phenyl]-2-methyl-6-phenyl-[1,2,4]triazolo[1,5-a]pyrimidin-7-yl}-cyclopropyl-amine] was tested, and the IC50 [1] was 1.85 µM and the IC50 [3] was 0.904 µM.
Compound `CNc1c(-c2ccccc2)c(-c2ccc(C3(N)CCC3)cc2)nc2nc(C)nn12` [Example 5-13, {5-[4-(1-amino-cyclobutyl)-phenyl]-2-methyl-6-phenyl-[1,2,4]triazolo[1,5-a]pyrimidin-7-yl}-methyl-amine] has an IC50 [1] of 2.24 µM and an IC50 [3] of 2.24 µM.
With `COCCNc1c(-c2ccccc2)c(-c2ccc(C3(N)CCC3)cc2)nc2nc(C)nn12` [Example 5-14, {5-[4-(1-amino-cyclobutyl)-phenyl]-2-methyl-6-phenyl-[1,2,4]triazolo[1,5-a]pyrimidin-7-yl}-(2-methoxy-ethyl)-amine] the IC50 [1] was 3.25 µM and the IC50 [3] was 2.32 µM.
For `NC1(c2ccc(-c3nc4nc(C5CC5)nn4c(N[C@H]4CC[C@H](O)CC4)c3-c3ccccc3)cc2)CCC1` [Example 5-15, 4-{5-[4-(1-amino-cyclobutyl)-phenyl]-2-cyclopropyl-6-phenyl-[1,2,4]triazolo[1,5-a]pyrimidin-7-ylamino}-cyclohexanol], the IC50 [1] was 11.6 µM and the IC50 [3] was 0.936 µM.

Reference: US20130184273A1, “BICYCLIC PYRIMIDINES” (Bayer Intellectual Property GmbH, priority 2010, published 2013)
